These results are taken from patent publication US20170327549A1, “Adenylation Enzyme Inhibitors” (Stichting Het Nederlands Kanker Instituut - antoni van …, priority 2014, published 2017).

This assay has as its target T1, Uba1 (Homo sapiens, UniProt P22314).
T1 sequence (P22314 1-1058): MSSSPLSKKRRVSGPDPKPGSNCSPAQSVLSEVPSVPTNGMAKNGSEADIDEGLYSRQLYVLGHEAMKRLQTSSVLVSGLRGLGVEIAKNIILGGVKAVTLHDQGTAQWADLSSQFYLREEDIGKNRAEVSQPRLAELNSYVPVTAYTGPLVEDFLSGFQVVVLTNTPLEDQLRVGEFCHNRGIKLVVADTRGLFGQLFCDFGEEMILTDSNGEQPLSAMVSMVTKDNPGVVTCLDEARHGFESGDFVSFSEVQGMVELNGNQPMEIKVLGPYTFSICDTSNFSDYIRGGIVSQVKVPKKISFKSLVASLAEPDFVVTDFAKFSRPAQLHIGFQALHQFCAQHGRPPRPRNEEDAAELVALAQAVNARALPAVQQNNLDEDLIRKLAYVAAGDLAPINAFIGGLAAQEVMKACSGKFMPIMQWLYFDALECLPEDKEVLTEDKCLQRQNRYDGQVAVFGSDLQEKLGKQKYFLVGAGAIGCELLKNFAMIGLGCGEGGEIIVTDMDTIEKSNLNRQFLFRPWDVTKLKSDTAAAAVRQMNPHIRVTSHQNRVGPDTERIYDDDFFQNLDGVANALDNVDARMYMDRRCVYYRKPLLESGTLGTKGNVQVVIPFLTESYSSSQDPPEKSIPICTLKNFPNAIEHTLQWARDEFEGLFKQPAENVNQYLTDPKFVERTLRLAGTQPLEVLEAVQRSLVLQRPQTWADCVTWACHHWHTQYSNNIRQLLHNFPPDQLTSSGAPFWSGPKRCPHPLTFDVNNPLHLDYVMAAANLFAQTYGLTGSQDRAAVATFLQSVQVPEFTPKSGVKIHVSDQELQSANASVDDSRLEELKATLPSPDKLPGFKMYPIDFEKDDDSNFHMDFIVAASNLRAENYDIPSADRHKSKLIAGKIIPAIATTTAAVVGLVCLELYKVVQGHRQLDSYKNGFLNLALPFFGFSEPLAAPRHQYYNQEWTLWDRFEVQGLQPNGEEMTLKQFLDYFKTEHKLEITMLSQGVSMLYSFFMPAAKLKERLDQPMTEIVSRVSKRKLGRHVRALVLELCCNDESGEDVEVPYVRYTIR
Put plainly: Peptide inhibitors of Ub-E1 thioester formation. In kind it is biochemical. How it is done: Peptides VYRFYGG and VYRFYGΔAla of varying concentrations (10, 50, 100, 200, 500, 700, 1000 μM) were incubated with 0.3 μM Uba1 in the presence of 1 mM ATP and 10 mM MgCl2 in TBS buffer (50 mM Tris, 150 mM NaCl, pH=7.5) for 15 min at room temperature. TAMRA-Ub (1 μM) was added to the reaction and samples were taken at two time points, respectively 15 sec and 15 min. The proteins were separated by SDS-PAGE and the TAMRA-Ub-E1 conjugates were visualized using a fluorescence scanner (λex=530 nm; λem=580 nm).

[1] abbreviates: initial velocities measured at 15 seconds.
Where [2] appears, read: reactions allowed to proceed for 15 min.

On to VYRFYG-ΔAla, for which the “inhibitory potency against Uba1 activity relative to VYRFYGG” value (after 15 min incubation, quantified from gel scanning) was “higher inhibitory potency against Uba1 activity”. In addition, the “inhibition of (TAMRA-Ub)-E1 formation” value reads like this: under setting [1], “inhibitory effect”; under setting [2], “prolonged inhibition of the E1”.
As to VYRFYGG [reference compound], the “inhibition of (TAMRA-Ub)-E1 formation” value runs as follows: under setting [1], “inhibitory effect”; under setting [2], “no detectable inhibition of E1 activity”.
